Measured values published in PubChem BioAssay AID2060329 (Molecular Pharmacology Branch, DTP, NCI, 2025).
Values joined by “and” are separate entries in the source; they are usually repeats but may differ in a detail not shown here. Identical values can stand only once.

Test system: MCF7 multi-cell spheroids with HUVEC/MSC, viability
Test: Anticancer human tumor MCF7 cell line growth inhibition [IpAb];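 further: spheroids exposed to agents for seven days before readout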
Settings: for viability, T/C: stronger effect = lower value
Procedure, shortened: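 Multi-cell spheroids of 60% tumour cells, 25% HUVEC and 15% MSC in ultra-low-attachment U-bottom wells, treated with agents combined with ipatasertib or abemaciclib. Half-log ranges top out near clinical Cmax, or 10 microM when Cmax is unknown.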

[1] = curve of first compound, second compound 0.1 µM
[2] = curve of first compound, second compound 0.316 µM
[3] = curve of first compound, second compound 1 µM
[4] = curve of first compound, second compound 3.16 µM
[5] = curve of first compound, second compound 10 µM
[6] = second compound 0.1 µM, first compound 0.00949 µM
[7] = second compound 0.1 µM, first compound 0.03 µM
[8] = second compound 0.1 µM, first compound 0.0949 µM
[9] = second compound 0.1 µM, first compound 0.3 µM
[10] = second compound 0.316 µM, first compound 0.00949 µM
[11] = second compound 0.316 µM, first compound 0.03 µM
[12] = second compound 0.316 µM, first compound 0.0949 µM
[13] = second compound 0.316 µM, first compound 0.3 µM
[14] = second compound 1 µM, first compound 0.00949 µM
[15] = second compound 1 µM, first compound 0.03 µM
[16] = second compound 1 µM, first compound 0.0949 µM
[17] = second compound 1 µM, first compound 0.3 µM
[18] = curve of first compound, second compound 0.01 µM
[19] = curve of first compound, second compound 0.0316 µM
[20] = second compound 0.1 µM, first compound 0.0316 µM
[21] = second compound 0.1 µM, first compound 0.1 µM
[22] = second compound 0.1 µM, first compound 0.316 µM
[23] = second compound 0.1 µM, first compound 1 µM
[24] = second compound 0.1 µM, first compound 3.16 µM
[25] = second compound 0.1 µM, first compound 10 µM
[26] = second compound 0.316 µM, first compound 0.0316 µM
[27] = second compound 0.316 µM, first compound 0.1 µM
[28] = second compound 0.316 µM, first compound 0.316 µM
[29] = second compound 0.316 µM, first compound 1 µM
[30] = second compound 0.316 µM, first compound 3.16 µM
[31] = second compound 0.316 µM, first compound 10 µM
[32] = second compound 1 µM, first compound 0.0316 µM
[33] = second compound 1 µM, first compound 0.1 µM
[34] = second compound 1 µM, first compound 0.316 µM
[35] = second compound 1 µM, first compound 1 µM
[36] = second compound 1 µM, first compound 3.16 µM
[37] = second compound 1 µM, first compound 10 µM

CC(=O)c1c(C)c2cnc(Nc3ccc(N4CCNCC4)cn3)nc2n(C2CCCC2)c1=O + CC(C)NCC(C(=O)N1CCN(c2ncnc3c2C(C)CC3O)CC1)c1ccc(Cl)cc1 was tested, and the IC50 [1] was > 300 nM, the IC50 [2] was > 300 nM and the IC50 [3] was 275 nM. The IC50 [4] was 23.6 nM, the IC50 [5] was < 0.949 nM and the viability, T/C (second compound 0.1 µM, first compound 0.000949 µM) was 96.3%. It also gave a viability, T/C (second compound 0.1 µM, first compound 0.003 µM) of 100%, a viability, T/C [6] of 97.1% and a viability, T/C [7] of 90.7%. For the same compound, the viability, T/C [8] was 89.6%, the viability, T/C [9] was 86.8% and the viability, T/C (second compound 0.316 µM, first compound 0.000949 µM) was 80.9%. For the same compound, the viability, T/C (second compound 0.316 µM, first compound 0.003 µM) was 82.7%, the viability, T/C [10] was 87.9% and the viability, T/C [11] was 81.8%. It also gave a viability, T/C [12] of 77.1%, a viability, T/C [13] of 73.9% and a viability, T/C (second compound 1 µM, first compound 0.000949 µM) of 67.4%. It also gave a viability, T/C (second compound 1 µM, first compound 0.003 µM) of 71.4%, a viability, T/C [14] of 63.1% and a viability, T/C [15] of 62.4%. It also gave a viability, T/C [16] of 55.5%, a viability, T/C [17] of 49.9% and a viability, T/C (second compound 3.16 µM, first compound 0.000949 µM) of 45.1%. The viability, T/C (second compound 3.16 µM, first compound 0.003 µM) was 57.4%, the viability, T/C (second compound 3.16 µM, first compound 0.00949 µM) was 52.2% and the viability, T/C (second compound 3.16 µM, first compound 0.03 µM) was 48.2%. The viability, T/C (second compound 3.16 µM, first compound 0.0949 µM) was 46.9%, the viability, T/C (second compound 3.16 µM, first compound 0.3 µM) was 39.4% and the viability, T/C (second compound 10 µM, first compound 0.000949 µM) was 41.6%. It also gave a viability, T/C (second compound 10 µM, first compound 0.003 µM) of 42.7%, a viability, T/C (second compound 10 µM, first compound 0.00949 µM) of 36.9% and a viability, T/C (second compound 10 µM, first compound 0.03 µM) of 34%. It also gave a viability, T/C (second compound 10 µM, first compound 0.0949 µM) of 34.5% and a viability, T/C (second compound 10 µM, first compound 0.3 µM) of 23.2%.

CC(C)(C)c1cnc(CSc2cnc(NC(=O)C3CCNCC3)s2)o1 + CCN1CCN(Cc2ccc(Nc3ncc(F)c(-c4cc(F)c5nc(C)n(C(C)C)c5c4)n3)nc2)CC1 showed an IC50 [18] of 74.4 nM, an IC50 [19] of 67 nM and an IC50 [1] of 64.7 nM. It also gave an IC50 [2] of 51.8 nM, an IC50 [3] of 17.2 nM and a viability, T/C (second compound 0.01 µM, first compound 0.00949 µM) of 112%. It also gave a viability, T/C (second compound 0.01 µM, first compound 0.03 µM) of 93%, a viability, T/C (second compound 0.01 µM, first compound 0.0949 µM) of 38.9% and a viability, T/C (second compound 0.01 µM, first compound 0.3 µM) of 23.7%. For the same compound, the viability, T/C (second compound 0.01 µM, first compound 0.949 µM) was 27.4%, the viability, T/C (second compound 0.01 µM, first compound 3 µM) was 29.8% and the viability, T/C (second compound 0.0316 µM, first compound 0.00949 µM) was 102%. It also gave a viability, T/C (second compound 0.0316 µM, first compound 0.03 µM) of 97.8%, a viability, T/C (second compound 0.0316 µM, first compound 0.0949 µM) of 29.4% and a viability, T/C (second compound 0.0316 µM, first compound 0.3 µM) of 19.5%. For the same compound, the viability, T/C (second compound 0.0316 µM, first compound 0.949 µM) was 26.8%, the viability, T/C (second compound 0.0316 µM, first compound 3 µM) was 27.6% and the viability, T/C [6] was 108%. The viability, T/C [7] was 99.7%, the viability, T/C [8] was 25% and the viability, T/C [9] was 21.7%. The viability, T/C (second compound 0.1 µM, first compound 0.949 µM) was 26.9%, the viability, T/C (second compound 0.1 µM, first compound 3 µM) was 27.2% and the viability, T/C [10] was 94.5%. For the same compound, the viability, T/C [11] was 72.3%, the viability, T/C [12] was 21.3% and the viability, T/C [13] was 22.3%. The viability, T/C (second compound 0.316 µM, first compound 0.949 µM) was 27.1%, the viability, T/C (second compound 0.316 µM, first compound 3 µM) was 30.4% and the viability, T/C [14] was 63%. For the same compound, the viability, T/C [15] was 37.8%, the viability, T/C [16] was 19.6% and the viability, T/C [17] was 22.8%. For the same compound, the viability, T/C (second compound 1 µM, first compound 0.949 µM) was 27.5% and the viability, T/C (second compound 1 µM, first compound 3 µM) was 32%.

In the case of Cn1nccc1Nc1nccc(-c2ccn(C(CO)c3ccc(Cl)c(F)c3)c(=O)c2)n1 (centres undefined) + CCN1CCN(Cc2ccc(Nc3ncc(F)c(-c4cc(F)c5nc(C)n(C(C)C)c5c4)n3)nc2)CC1, the IC50 [18] is reported as > 10000 nM, the IC50 [19] is reported as > 10000 nM and the IC50 [1] is reported as > 10000 nM. The IC50 [2] was > 10000 nM, the IC50 [3] was > 10000 nM and the viability, T/C (second compound 0.01 µM, first compound 0.0316 µM) was 107%. For the same compound, the viability, T/C (second compound 0.01 µM, first compound 0.1 µM) was 113%, the viability, T/C (second compound 0.01 µM, first compound 0.316 µM) was 115% and the viability, T/C (second compound 0.01 µM, first compound 1 µM) was 126%. For the same compound, the viability, T/C (second compound 0.01 µM, first compound 3.16 µM) was 143%, the viability, T/C (second compound 0.01 µM, first compound 10 µM) was 104% and the viability, T/C (second compound 0.0316 µM, first compound 0.0316 µM) was 105%. It also gave a viability, T/C (second compound 0.0316 µM, first compound 0.1 µM) of 116%, a viability, T/C (second compound 0.0316 µM, first compound 0.316 µM) of 128% and a viability, T/C (second compound 0.0316 µM, first compound 1 µM) of 136%. It also gave a viability, T/C (second compound 0.0316 µM, first compound 3.16 µM) of 138%, a viability, T/C (second compound 0.0316 µM, first compound 10 µM) of 62.1% and a viability, T/C [20] of 116%. It also gave a viability, T/C [21] of 129%, a viability, T/C [22] of 139% and a viability, T/C [23] of 136%. The viability, T/C [24] was 139%, the viability, T/C [25] was 74.8% and the viability, T/C [26] was 119%. The viability, T/C [27] was 115%, the viability, T/C [28] was 131% and the viability, T/C [29] was 143%. The viability, T/C [30] was 133%, the viability, T/C [31] was 95% and the viability, T/C [32] was 126%. It also gave a viability, T/C [33] of 125%, a viability, T/C [34] of 123% and a viability, T/C [35] of 148%. For the same compound, the viability, T/C [36] was 145% and the viability, T/C [37] was 113%.

For CC(=O)c1c(C)c2cnc(Nc3ccc(N4CCNCC4)cn3)nc2n(C2CCCC2)c1=O, the viability, T/C (compound 0.000949 µM) was 119% and 97.4%, the viability, T/C (compound 0.003 µM) was 101% and 97.1% and the viability, T/C (compound 0.00949 µM) was 95.5% and 95.7%. For the same compound, the viability, T/C (compound 0.03 µM) was 96.1% and 115%, the viability, T/C (compound 0.0949 µM) was 109% and 95.9% and the viability, T/C (compound 0.3 µM) was 89.2% and 104%. For the same compound, the IC50 (curve of compound) was > 300 nM.

C=CC(=O)N1CCN(c2nc(=O)n(-c3c(C)ccnc3C(C)C)c3nc(-c4c(O)cccc4F)c(F)cc23)C(C)C1 (centres undefined) + CC(C)NCC(C(=O)N1CCN(c2ncnc3c2C(C)CC3O)CC1)c1ccc(Cl)cc1 gave an IC50 [1] of 8300 nM, an IC50 [2] of 6940 nM and an IC50 [3] of 2710 nM. For the same compound, the IC50 [4] was 1060 nM, the IC50 [5] was < 31.6 nM and the viability, T/C [20] was 82.4%. It also gave a viability, T/C [21] of 99.8%, a viability, T/C [22] of 100% and a viability, T/C [23] of 90.8%. It also gave a viability, T/C [24] of 78.3%, a viability, T/C [25] of 44.5% and a viability, T/C [26] of 79.5%. It also gave a viability, T/C [27] of 87.3%, a viability, T/C [28] of 77.1% and a viability, T/C [29] of 73.3%. It also gave a viability, T/C [30] of 68.4%, a viability, T/C [31] of 41.6% and a viability, T/C [32] of 74.5%. It also gave a viability, T/C [33] of 73.3%, a viability, T/C [34] of 65.4% and a viability, T/C [35] of 65.8%. For the same compound, the viability, T/C [36] was 46.6%, the viability, T/C [37] was 32.8% and the viability, T/C (second compound 3.16 µM, first compound 0.0316 µM) was 58.6%. It also gave a viability, T/C (second compound 3.16 µM, first compound 0.1 µM) of 53.4%, a viability, T/C (second compound 3.16 µM, first compound 0.316 µM) of 56.6% and a viability, T/C (second compound 3.16 µM, first compound 1 µM) of 50.2%. It also gave a viability, T/C (second compound 3.16 µM, first compound 3.16 µM) of 38.7%, a viability, T/C (second compound 3.16 µM, first compound 10 µM) of 22.6% and a viability, T/C (second compound 10 µM, first compound 0.0316 µM) of 47.7%. For the same compound, the viability, T/C (second compound 10 µM, first compound 0.1 µM) was 41.3%, the viability, T/C (second compound 10 µM, first compound 0.316 µM) was 44% and the viability, T/C (second compound 10 µM, first compound 1 µM) was 36.3%. It also gave a viability, T/C (second compound 10 µM, first compound 3.16 µM) of 40.9% and a viability, T/C (second compound 10 µM, first compound 10 µM) of 22.6%.

For CC(C)n1nc(-c2ccc3oc(N)nc3c2)c2c(N)ncnc21, the viability, T/C (compound 0.000316 µM) was 98.9% and 88.3%, the viability, T/C (compound 0.001 µM) was 86.4% and 81.6% and the viability, T/C (compound 0.00316 µM) was 80.8% and 82.8%. For the same compound, the viability, T/C (compound 0.01 µM) was 73.5% and 65.5%, the viability, T/C (compound 0.0316 µM) was 42.5% and 29.7% and the viability, T/C (compound 0.1 µM) was 25% and 22.1%. For the same compound, the IC50 (curve of compound) was 25.9 nM and 16.4 nM.
